PMC6611213, “Key Features Relevant to Select Antigens and TCR From the MHC-Mismatched Repertoire to Treat Cancer” (Frontiers in Immunology, 2019)

Assays:
HLA-B7 monomers [1] = assay: Thermal shift assay (DSF) of p-MHC complexes; type: binding, human; settings: for Thermal stability V50: 2 µM monomer, 150 mM NaCl, 10 mM HEPES pH 7.4, 3 mM EDTA, SYPRO orange, 21°C to 95°C, mean of quadruplicates (n=2); for thermal V50: Boltzmann fitting, rounded
Method: (§1) (A) Thermal shift assay of MPO-peptides in comparison to pp65 and MPO2+L1. Boltzmann fitting was used to determine V50 values (half-maximal denaturation) for each p-MHC complex after gradual heating from 21°C to 95°C. The mean of quadruplicates is shown (n=2). (B) Measurement of kinetic stability of indicated p-MHC complexes in comparison to pp65 and MPO2+L1 at constant temperature of 37°C. For the determination of half-maximal decay of p-MHC complexes, the slowest constant rates were used after fitting the fluorescence values with an exponential two-phase decay equation. The mean of quadruplicates is shown (n=2). (A,B) The fluorescence was measured by monitoring the intensity of SYPRO orange protein dye binding to hydrophobic core regions of unfolded p-MHC-complexes. (C) Occurrence of the MPO2 and MPO5 peptides on the surface of indicated AML cell lines with endogenous HLA-B7 expression using the heavy labelled Leu7 counterpart for detection. Logarithmic intensities of MPO peptide surface presentation for MPO peptides are shown in duplicates. MPO5 peptides are depicted in blue, MPO2 peptides are depicted in green (n=2).
(§2) For differential scanning fluorimetry (DSF), i.e. thermal shift assay and kinetic stability measurement, MPO2-, MPO2+L1-, MPO5- or pp65(417-426) peptide exchanged HLA-B7 monomers were used in a concentration of 2µM and analyzed on a StepOnePlus RT-PCR instrument (Applied Biosystems, Foster City, CA, USA), respectively. Samples were measured in a final volume of 20µl in MicroAmp^R Fast Optical 96-well reaction plates (Applied Biosystems) containing 150mM NaCl, 10mM HEPES (pH 7.4), 3mM EDTA and 10x SYPRO orange (Thermo Fisher Scientific) as described previously (Hellman et al., 2016). Analysis was done following the recommendations described elsewhere (Niesen et al., 2007) using the Microsoft Excel-based tool “DSF Analysis v3.0.2” available under the following link (ftp://ftp.sgc.ox.ac.uk/pub/biophysics). For accurate ﬁtting and calculation of V50-values, the Boltzmann equation was performed using GraphPad Prism (version 7.04, San Diego, USA). The kinetic stability was analyzed at constant 37°C and fluorescence was measured every 5 minutes. The fluorescent data were fit to a two-phase decay function and slowest rates for half-lives were calculated using GraphPad Prism (version 7.04, San Diego, USA).

AML cell lines = assay: Targeted MS of surface-presented peptides; parameters: species or system human; settings: targeted MS with heavy labelled peptides; MPO2 compared to MPO5 (n=2)
Method: as §1, with “MPO5 peptides are depicted in blue, MPO2 peptides are depicted in green (n=2).” left out
The MPO2 and MPO5 ligands were identified using an immunopeptidomic approach as previously described (Klar et al., 2014). For the targeted identification and relative quantification of both peptides, HLA-I peptides were purified from 5x10^8 cells of each cell line as previously described (Bassani-Sternberg et al., 2016). […]

HLA-B7 monomers [2] = assay: UV-mediated peptide exchange, B2M ELISA; type: binding, human; settings: for Stability after UV-peptide exchange, V50: Pooled values of at least three independent experiments, 0–200 μM peptide, UV 366 nm, B2M ELISA, Boltzmann fit; for HLA-stabilization potential: UV-peptide exchange, titrated peptide
Method: Biotinylated HLA-B7 monomers loaded with the UV-cleavable epitope AARG(J)TLAM were created as previously described ([33]). Peptide-HLA stability was measured using the protocol on the basis of Rodenko et al. ([34]). In brief, HLA-B7 monomers loaded with the UV-sensitive peptide were exposed to UV light (366 nm) in the presence of graded amounts (0–200 μM) of MPO peptides. Afterward 1:10 dilutions of the UV-exchanged monomers were adhered via streptavidin to the bottom of a 96-well plate (F96 maxisorp nunc-immune plate, Thermo scientific) and a beta-2-microglobulin ELISA was performed. The OD measurements were performed on a Tecan Sunrise multi-well-reader using Magellan software (version 7.2).
(§3) An E/T ratio of 1:1 was used. IFN-γ secretion of the supernatants after co-cultivation was measured by IFN-γ ELISA. […] (B) Beta-2-microglobulin (B2M)-ELISA of UV-mediated peptide exchanged HLA-B7 monomers. V50 values of a Boltzmann fitting for each MPO-peptide was determined by the optical density of B2M after degraded amounts of MPO-peptides were used for HLA-stabilization. […] (C) Pooled results of (B) for MPO5 (n = 4), MPO2 (n = 4), and MPO2+L1 (n = 3). Significance is calculated by Mann-Whitney Test: *p = 0.0286. TEXT PRINTED IN THE PICTURE: (B) MPO5: V50 = -5,204 | (B) MPO2: V50 = -4,610 | (B) MPO2+L1: V50 = -4,143
To verify the stability results of all three MPO-peptides experimentally, we performed HLA-B7 UV-peptide exchange assays with titrated amounts of peptide added to a constant concentration of HLA-B7 monomers bound to a UV-sensitive peptide. […] Thus, our results oppose the results of the NetMHC stability prediction. As a second experiment, we performed thermal shift assays for the MPO peptides to characterize their potential to prevent denaturation of the HLA-complex with ascending temperature (Supplementary Figure 3A; Table 1).

HLA-B7 monomers [3] = assay: Kinetic stability of p-MHC complexes at 37°C (DSF); type: binding, human; settings: DSF at constant 37°C; for Half-life 37°C: pH 7.4, SYPRO orange, two-phase decay, slowest rate, mean of quadruplicates (n=2)
Method: as §1, §2

[4] = test system: HL60, ML2, NB4 and SiG-M5 AML cell lines; assay: Cytokine secretion by TCR-transduced CD8+ T cells to AML cell lines; type: cell-based, human; settings: AML cell lines pulsed with MPO2 or MPO5
Method: The cytotoxic reactivity of T cells was tested by flow cytometry making use of changes in signal of the HLA-B7eGFP-transgenic target cells during co-cultivation for different time periods and effector to target ratios. For relative quantification of cytotoxicity, AccuCheck counting beads were used according to the manufacturer's protocol (Thermo Fisher Scientific) and the results were normalized to either non-TCR-transduced T cells or irrelevant T-cell clones. The supernatants of the co-cultivation were used to measure IFN-γ by ELISA (BD) or GM-CSF, IFN-γ, and lL-2 multiplexed by flow cytometry (Miltenyi Biotec) according to the manufacturer's instructions. […] If not stated otherwise, the effector to target ratio was set to 1:1 for the co-incubation assays using 20,000 cells in each fraction.
Half-maximal IFN-γ release was calculated using logarithmic dose-response fitting algorithm with variable slope (EC50) of GraphPad Prism. Mean ± SD of triplicates of one representative experiment are shown (n = 6). […] 10.000 effector cells were used in a ratio of 1:1. Standard deviations of the mean of triplicates are shown (n = 4). (Gi−iv) Cytokine secretion (GM-CSF, IFN-γ, and IL-2) measured by flow cytometry based multiplex analysis in response to selected AML cell lines is shown in triplicates either unpulsed or additionally pulsed with MPO2 or MPO5.

HLA-B7+ LCL1 cell line = assay: IFN-γ release by TCRF5.4-transduced PBMC to peptide-pulsed LCL1; type: cell-based, human; settings: peptide-pulsed LCL1, E/T 1:1, ELISA, triplicates (n = 2)
Method: as §3

## TPAQLNVL [MPO2]
HLA-B7 monomers [1]
  Thermal stability V50: 46.3 °C
  thermal V50: 46 °C
AML cell lines
  surface presentation on AML cell lines: markedly lower presented on the surface of all AML cells lines compared to MPO5
HLA-B7 monomers [2]
  Stability after UV-peptide exchange, V50: −4.671 log10 M
HLA-B7 monomers [3]
  Half-life (decay of HLA-complexes) 37°C: 3.5 h
  Half-life 37°C: 3.5 h
[4]
  effect of additional peptide pulsing on cytokine secretion: these differences could be compensated by additional MPO2 peptide pulsing

## LTPAQLNVL [MPO2+L1]
HLA-B7 monomers [1]
  Thermal stability V50: 44.0 °C
  thermal V50: 44 °C
HLA-B7+ LCL1 cell line
  IFN-γ secretion by TCRF5.4-transduced T cells: detected IFN-γ secretion
HLA-B7 monomers [2]
  Stability after UV-peptide exchange, V50: −3.728 log10 M
  HLA-stabilization potential: lowest potential for HLA-stabilization
HLA-B7 monomers [3]
  Half-life 37°C: 2.9 h

## TPRVTGGGAM [pp65, pp65(417-426) control peptide […], reference compound]
HLA-B7 monomers [1]
  Thermal stability V50: 50.0 °C
  thermal V50: 50 °C
HLA-B7 monomers [3]
  Half-life 37°C: 5.6 h

## NPRWDGERL [MPO5]
HLA-B7 monomers [1]
  Thermal stability V50: 46.4 °C
  thermal V50: 46 °C
HLA-B7 monomers [2]
  Stability after UV-peptide exchange, V50: −5.535 log10 M
  HLA-stabilization potential: almost one log increased potential to rescue the HLA-B7 molecule
HLA-B7 monomers [3]
  Half-life (decay of HLA-complexes) 37°C: 4.1 h
  Half-life 37°C: 4.1 h
[4]
  effect of additional peptide pulsing on cytokine secretion: did not have a major impact on cytokine secretion
